The source made the active and inactive calls.
Key:
[1] = biological target: T1, Polyadenylate-binding protein 1 (Homo sapiens, UniProt P11940); assay: MLLE domain peptide-binding blockers, IC50 – biochemical, fluorescence polarization, FITC-PAM2 peptide, dose response (AID 602259); type: functional; details: read-out: IC50_Mean
[2] = biological target: T1, Polyadenylate-binding protein 1; assay: MLLE binding blockers, Cy5 peptide tracer – biochemical, fluorescence polarization, Cy5-PAM2 peptide, secondary, miRNA deadenylation inhibitor project, dose response (AID 602260); type: functional; details: read-out: IC50_Mean
[3] = biological target: T2, Heat shock factor protein 1 (Mus musculus, UniProt P38532); assay: enhancement of HSF1-driven luciferase signal – cell-based, NIH3T3, luminescence, dose retest, confirmation (AID 435004); type: functional;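 note: stress induced by proteasome inhibitor MG132 added 30 min after compound; luciferase reporter driven by HSF1 response element in NIH3T3 cells; actives raise luminescence as potentiators of the MG132 stress response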
T2 sequence (P38532 whole entry): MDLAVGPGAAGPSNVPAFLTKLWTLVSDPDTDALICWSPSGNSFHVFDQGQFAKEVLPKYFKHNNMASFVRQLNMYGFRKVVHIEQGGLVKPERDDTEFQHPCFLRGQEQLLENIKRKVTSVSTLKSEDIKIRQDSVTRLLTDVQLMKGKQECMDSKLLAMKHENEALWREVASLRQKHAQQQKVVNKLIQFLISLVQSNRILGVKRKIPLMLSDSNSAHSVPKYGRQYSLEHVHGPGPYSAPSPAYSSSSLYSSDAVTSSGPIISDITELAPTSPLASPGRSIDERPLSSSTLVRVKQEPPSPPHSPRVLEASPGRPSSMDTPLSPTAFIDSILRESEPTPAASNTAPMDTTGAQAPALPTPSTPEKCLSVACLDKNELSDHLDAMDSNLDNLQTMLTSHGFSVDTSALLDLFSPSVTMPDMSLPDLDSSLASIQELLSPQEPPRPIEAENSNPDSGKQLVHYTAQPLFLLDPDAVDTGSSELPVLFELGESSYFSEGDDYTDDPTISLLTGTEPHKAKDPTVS

[4] = test system: Vero; assay: viability of Vero cells under compound – cytotoxicity control for flavivirus capping enzyme inhibitors (AID 588742); type: functional; details: Chlorocebus sabaeus
[5] = biological target: Heat shock protein HSP 90-alpha (Homo sapiens, UniProt P07900); type: functional, organism-based
[6] = test system: HEK293; assay: EBV LMP1 TES2 canonical NF-kB signalling blockers – cell-based, HEK293, luciferase, cherry-pick, dose response (AID 588343); type: functional; details: Homo sapiens
[7] = Vero E6 cell cytotoxicity, dose response, cytotoxicity control for non-replicating M. tuberculosis project, secondary assay (AID 492998); type: functional, VeroE6; details: Vero C1008
[8] = test system: HEK293; assay: NOD2 signaling inhibitors in MDP-stimulated cells, cell-based, uHTS, luminescence (AID 2001); type: functional; details: Homo sapiens
[9] = Luminescence Cell-Based/Microorganism Confirmation at Dose of Inhibitors of Trypanosoma cruzi Infection. [Related pubchem assays: 1885, 1968 ]; type: functional
[10] = test system: HEK293; assay: cells; type: functional, cell-based; details: Homo sapiens
[11] = test system: Streptococcus; assay: GAS UMAA2166 growth inhibition – luminescence, BacTiterGlo, counter-screen for streptokinase expression inhibitor project, dose response (AID 1915); type: functional, organism-based;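 note: potency for reduction of bacterial viability or growth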
[12] = biological target: Hexokinase-1 (Homo sapiens, UniProt P19367); assay: HK1 enzyme activation by HKDC1 hits – biochemical, selectivity assay for HKDC1 activator project, dose response (AID 504762); type: functional
Chain of Hexokinase-1 (P19367 whole entry): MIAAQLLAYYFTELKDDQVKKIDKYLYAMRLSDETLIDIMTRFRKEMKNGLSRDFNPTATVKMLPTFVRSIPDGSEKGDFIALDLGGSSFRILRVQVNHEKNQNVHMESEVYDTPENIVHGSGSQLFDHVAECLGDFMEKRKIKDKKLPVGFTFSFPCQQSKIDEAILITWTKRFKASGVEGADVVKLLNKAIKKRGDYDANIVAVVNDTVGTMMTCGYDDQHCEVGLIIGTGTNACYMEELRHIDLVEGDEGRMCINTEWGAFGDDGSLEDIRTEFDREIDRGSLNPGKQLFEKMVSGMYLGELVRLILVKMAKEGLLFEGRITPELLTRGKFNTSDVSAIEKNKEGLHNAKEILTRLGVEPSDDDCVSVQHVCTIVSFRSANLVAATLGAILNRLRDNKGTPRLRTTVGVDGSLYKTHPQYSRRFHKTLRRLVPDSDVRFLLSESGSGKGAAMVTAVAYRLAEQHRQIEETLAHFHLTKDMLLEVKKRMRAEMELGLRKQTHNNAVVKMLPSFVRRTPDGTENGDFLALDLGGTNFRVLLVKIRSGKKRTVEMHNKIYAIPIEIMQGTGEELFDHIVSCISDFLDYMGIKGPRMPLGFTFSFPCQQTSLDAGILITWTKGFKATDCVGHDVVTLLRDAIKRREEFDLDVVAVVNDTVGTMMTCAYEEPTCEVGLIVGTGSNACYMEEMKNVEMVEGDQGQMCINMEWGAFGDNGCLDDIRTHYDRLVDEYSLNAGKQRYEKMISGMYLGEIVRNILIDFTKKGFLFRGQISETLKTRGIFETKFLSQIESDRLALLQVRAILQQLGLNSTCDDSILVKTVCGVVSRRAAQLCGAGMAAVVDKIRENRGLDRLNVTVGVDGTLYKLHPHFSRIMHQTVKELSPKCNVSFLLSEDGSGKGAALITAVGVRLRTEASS

[13] = biological target: DNA (cytosine-5)-methyltransferase 1 (Homo sapiens, UniProt P26358); assay: inhibition of DNA methylation by DNMT1 – biochemical, fluorescent molecular beacon, confirmation (AID 602386); type: functional
Chain of DNA (cytosine-5)-methyltransferase 1 (P26358 whole entry): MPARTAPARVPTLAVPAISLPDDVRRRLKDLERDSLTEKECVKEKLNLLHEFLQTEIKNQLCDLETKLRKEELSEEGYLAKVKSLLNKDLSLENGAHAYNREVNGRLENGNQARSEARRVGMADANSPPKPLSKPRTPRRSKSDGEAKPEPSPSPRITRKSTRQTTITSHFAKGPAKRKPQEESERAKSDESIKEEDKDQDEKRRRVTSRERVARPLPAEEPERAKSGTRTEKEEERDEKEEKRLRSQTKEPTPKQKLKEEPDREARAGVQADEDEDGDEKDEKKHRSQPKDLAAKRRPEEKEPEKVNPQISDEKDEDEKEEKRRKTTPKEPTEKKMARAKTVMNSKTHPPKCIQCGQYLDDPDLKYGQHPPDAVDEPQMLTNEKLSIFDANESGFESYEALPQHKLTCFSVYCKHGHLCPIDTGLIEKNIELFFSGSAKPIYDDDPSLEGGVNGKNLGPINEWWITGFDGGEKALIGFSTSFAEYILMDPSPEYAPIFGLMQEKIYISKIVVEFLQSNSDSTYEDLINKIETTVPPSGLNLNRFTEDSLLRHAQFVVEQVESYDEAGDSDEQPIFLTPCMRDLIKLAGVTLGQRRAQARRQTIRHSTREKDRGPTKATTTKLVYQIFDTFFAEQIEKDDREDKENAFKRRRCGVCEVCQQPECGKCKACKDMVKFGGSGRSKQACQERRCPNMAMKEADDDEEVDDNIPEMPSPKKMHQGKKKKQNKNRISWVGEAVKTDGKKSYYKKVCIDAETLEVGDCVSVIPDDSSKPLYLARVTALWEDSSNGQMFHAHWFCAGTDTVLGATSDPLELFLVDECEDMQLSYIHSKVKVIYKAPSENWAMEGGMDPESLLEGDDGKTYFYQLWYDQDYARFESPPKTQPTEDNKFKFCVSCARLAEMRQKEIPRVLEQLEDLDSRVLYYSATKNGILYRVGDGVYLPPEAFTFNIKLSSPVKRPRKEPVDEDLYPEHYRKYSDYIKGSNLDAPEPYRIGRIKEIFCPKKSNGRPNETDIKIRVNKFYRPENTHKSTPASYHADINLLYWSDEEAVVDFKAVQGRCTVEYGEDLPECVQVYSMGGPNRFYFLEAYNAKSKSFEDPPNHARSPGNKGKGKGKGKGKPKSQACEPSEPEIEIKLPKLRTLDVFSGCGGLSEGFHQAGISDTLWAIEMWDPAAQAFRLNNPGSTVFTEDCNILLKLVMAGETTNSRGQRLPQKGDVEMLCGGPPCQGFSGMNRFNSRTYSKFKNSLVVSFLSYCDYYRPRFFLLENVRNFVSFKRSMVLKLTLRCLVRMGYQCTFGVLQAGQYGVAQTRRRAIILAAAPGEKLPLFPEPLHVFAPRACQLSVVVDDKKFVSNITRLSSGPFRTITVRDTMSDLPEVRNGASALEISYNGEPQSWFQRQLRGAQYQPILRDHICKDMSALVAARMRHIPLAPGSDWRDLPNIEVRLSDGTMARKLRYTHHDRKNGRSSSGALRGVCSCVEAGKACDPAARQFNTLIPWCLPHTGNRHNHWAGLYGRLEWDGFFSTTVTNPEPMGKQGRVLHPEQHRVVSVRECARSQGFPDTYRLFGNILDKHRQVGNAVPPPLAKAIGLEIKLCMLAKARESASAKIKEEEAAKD

[14] = biological target: T3, Sentrin-specific protease 8 (Homo sapiens, UniProt Q96LD8); type: functional;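 note: luminescence read-out of SENP8 inhibition, dose-response confirmation following an ultra-high-throughput screen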
T3 sequence (Q96LD8 whole entry): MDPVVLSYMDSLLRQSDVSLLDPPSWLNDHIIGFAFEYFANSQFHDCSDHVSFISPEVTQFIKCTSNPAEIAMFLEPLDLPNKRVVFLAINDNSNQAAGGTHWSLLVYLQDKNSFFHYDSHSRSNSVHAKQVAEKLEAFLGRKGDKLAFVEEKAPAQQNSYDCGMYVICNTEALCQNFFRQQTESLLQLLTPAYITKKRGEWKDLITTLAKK

[15] = biological target: T4, Apoptotic protease-activating factor 1 (Homo sapiens, UniProt O14727); type: functional
T4 sequence (O14727 whole entry): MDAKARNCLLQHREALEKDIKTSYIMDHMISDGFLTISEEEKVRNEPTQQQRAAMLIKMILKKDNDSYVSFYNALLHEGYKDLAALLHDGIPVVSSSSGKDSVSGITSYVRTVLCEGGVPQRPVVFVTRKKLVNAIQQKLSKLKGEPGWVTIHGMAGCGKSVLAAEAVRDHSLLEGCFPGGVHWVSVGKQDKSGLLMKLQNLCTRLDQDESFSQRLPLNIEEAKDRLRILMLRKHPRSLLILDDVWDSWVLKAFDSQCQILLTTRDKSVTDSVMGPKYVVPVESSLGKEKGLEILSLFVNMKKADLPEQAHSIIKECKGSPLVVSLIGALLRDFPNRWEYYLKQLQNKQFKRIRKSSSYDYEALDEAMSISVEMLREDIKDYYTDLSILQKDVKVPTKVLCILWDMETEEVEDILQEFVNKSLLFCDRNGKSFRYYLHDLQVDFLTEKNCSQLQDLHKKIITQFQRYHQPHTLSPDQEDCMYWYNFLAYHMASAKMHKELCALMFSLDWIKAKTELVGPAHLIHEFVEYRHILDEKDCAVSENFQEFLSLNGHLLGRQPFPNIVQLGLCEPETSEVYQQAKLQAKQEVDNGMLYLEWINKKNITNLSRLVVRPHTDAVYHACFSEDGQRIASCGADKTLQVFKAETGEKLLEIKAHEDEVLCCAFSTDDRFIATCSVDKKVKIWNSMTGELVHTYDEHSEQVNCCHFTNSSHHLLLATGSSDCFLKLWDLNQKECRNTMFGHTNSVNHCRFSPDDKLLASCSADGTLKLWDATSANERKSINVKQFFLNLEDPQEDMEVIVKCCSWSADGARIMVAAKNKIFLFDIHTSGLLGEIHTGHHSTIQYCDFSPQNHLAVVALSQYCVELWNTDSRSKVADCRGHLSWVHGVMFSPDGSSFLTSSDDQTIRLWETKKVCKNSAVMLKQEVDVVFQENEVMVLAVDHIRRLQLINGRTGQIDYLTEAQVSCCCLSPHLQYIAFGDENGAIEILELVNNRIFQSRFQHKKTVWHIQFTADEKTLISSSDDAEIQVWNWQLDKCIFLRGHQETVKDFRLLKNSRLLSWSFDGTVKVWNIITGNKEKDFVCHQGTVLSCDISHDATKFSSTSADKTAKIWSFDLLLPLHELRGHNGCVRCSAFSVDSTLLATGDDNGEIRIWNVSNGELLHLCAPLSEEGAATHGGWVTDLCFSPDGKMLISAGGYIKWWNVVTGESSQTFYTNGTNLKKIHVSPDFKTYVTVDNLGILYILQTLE

T1 sequence (P11940 whole entry, the tested form may be a part): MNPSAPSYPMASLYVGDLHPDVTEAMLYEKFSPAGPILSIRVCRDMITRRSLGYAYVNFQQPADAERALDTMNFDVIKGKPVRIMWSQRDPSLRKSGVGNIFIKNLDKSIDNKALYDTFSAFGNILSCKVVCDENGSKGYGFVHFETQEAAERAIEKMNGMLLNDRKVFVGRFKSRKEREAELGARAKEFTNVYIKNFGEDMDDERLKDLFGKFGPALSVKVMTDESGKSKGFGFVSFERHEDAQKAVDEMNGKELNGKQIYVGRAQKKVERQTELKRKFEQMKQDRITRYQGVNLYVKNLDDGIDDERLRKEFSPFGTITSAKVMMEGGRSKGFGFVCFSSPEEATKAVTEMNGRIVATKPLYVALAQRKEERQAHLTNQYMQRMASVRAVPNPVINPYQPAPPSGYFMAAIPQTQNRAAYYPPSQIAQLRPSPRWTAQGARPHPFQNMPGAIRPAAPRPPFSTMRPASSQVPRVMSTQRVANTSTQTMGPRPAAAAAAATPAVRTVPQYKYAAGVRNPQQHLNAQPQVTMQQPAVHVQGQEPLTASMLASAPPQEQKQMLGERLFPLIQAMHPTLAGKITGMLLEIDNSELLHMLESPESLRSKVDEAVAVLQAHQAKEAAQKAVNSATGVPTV

O=C(O)CSc1cc(NS(=O)(=O)c2ccc(Br)cc2)c2ccccc2c1O
IC50 [1]: > 66 µM (inactive)
IC50 [2]: > 66 µM (inactive)
EC50 [3]: > 260 µM (inactive)
CC50 [4]: 34 µM (active)

O=C(CC(O)(C(F)(F)F)C(F)(F)F)Nc1ccc(Cl)c(Cl)c1
AC50 [5]: 16.8 µM (active)
AC50 [6]: 1.34 µM (active)

O=C(CNc1cccc2ccccc12)N/N=C/c1ccc([N+](=O)[O-])o1
CC50 [7]: > 20 µM (active)
IC50 [8]: 11.5 µM (inactive)
EC50 [9]: 22 nM (active)
IC50 [10]: > 20 µM (inactive)
EC50 [11]: 6.2 µM (active)

O=C1NC(=S)N/C1=C/c1cc2c(cc1[N+](=O)[O-])OCO2
EC50 [12]: 37.9 µM (inactive)
IC50 [13]: 3.85 µM (active)
IC50 [14]: 9.01 µM (active)
IC50 [15]: 12.9 µM (active)

— ChEMBL document CHEMBL1201862, “PubChem BioAssay data set” (2004)
